The text below walks through data of PMC9388863, “Congeners-Specific Intestinal Absorption Of Microcystins In An In Vitro 3D Human Intestinal Epithelium: The Role Of Influx/Efflux Transporters” (Frontiers in Toxicology, 2022).

*1 amine or outer side, *2 acyl side, *3 side chain or, on linkers, in order; H or OH if unused. Where a SMILES comes first, the peptide text is derived from it. Bridges are numbered along the chain shown (N, C = ends). [ ]: non-standard residue; d: D form. Adda = CO[C@@H](Cc1ccccc1)[C@@H](C)/C=C(C)/C=C/[C@H](N[*:1])[C@H](C)C(=O)[*:2]; dAsp(3S-Me) = C[C@H](C(=O)[*:3])[C@@H](N[*:1])C(=O)[*:2]; d(γGlu) = O=C(O)[C@@H](CCC(=O)[*:2])N[*:1]; NMeDha = C=C(NC)C(=O)O

Data set [1] relates to EpiIntestinal™ 3D human reconstructed intestinal epithelium. The data set is classed as in vitro ADME.
Data set [2] relates to EpiIntestinal™ tissues. Format: cell-based, human.
In data set [3] the target is T1, MRP2 (Homo sapiens, UniProt Q92887).
T1 construct: EpiIntestinal™ tissues express all the influx and efflux transporters that are considered relevant; host or cells: EpiIntestinal™ 3D reconstructed human small-intestinal epithelium (normal human primary cells, single donor)
T1 sequence (Q92887 whole entry): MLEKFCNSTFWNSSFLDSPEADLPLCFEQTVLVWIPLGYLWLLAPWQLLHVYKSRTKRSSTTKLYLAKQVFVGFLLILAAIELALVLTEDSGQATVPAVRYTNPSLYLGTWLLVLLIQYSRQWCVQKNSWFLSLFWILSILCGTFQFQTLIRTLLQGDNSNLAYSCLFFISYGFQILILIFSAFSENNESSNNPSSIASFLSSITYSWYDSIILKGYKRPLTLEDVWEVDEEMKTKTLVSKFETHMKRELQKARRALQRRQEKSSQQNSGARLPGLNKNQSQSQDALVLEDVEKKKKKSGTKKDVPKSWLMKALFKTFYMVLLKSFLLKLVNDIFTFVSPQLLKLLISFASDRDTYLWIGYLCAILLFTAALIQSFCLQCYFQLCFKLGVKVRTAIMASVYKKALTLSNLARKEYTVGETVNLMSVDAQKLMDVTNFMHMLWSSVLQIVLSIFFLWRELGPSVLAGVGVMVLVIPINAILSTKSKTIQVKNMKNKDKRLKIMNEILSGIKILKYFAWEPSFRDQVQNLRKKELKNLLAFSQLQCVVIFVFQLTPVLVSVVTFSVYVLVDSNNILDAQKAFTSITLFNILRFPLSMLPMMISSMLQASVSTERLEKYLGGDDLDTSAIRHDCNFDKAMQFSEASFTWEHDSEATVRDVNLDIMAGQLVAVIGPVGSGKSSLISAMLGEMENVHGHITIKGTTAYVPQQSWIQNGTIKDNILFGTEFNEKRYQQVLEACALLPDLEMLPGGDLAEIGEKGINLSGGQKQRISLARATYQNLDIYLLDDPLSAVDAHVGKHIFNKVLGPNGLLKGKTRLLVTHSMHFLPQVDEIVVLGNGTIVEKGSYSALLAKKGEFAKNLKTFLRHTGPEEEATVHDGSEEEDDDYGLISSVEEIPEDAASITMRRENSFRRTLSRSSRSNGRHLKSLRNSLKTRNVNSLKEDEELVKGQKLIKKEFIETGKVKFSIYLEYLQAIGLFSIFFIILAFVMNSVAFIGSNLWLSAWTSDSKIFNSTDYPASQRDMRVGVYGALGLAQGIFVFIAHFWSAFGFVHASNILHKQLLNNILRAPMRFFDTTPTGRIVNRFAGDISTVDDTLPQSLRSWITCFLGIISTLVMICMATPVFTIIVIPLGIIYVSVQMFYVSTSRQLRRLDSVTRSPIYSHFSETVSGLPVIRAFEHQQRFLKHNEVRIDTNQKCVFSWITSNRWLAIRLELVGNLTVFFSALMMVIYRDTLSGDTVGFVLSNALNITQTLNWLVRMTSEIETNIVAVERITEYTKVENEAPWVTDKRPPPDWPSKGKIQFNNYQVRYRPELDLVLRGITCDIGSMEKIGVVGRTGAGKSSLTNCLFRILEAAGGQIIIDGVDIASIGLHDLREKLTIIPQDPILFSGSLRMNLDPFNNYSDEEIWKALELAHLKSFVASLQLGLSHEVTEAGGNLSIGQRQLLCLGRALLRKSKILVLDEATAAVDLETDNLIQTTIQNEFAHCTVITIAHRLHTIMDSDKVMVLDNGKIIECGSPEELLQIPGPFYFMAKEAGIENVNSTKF
Particulars: cited from earlier work.

The subject of another data set is Caco-2 cell monolayers. Particulars: cited from earlier work.
Data set [4] has as its target T1, MRP2. Format: in vitro ADME.
The next data set addresses T2, P-gp (Homo sapiens, UniProt P08183).
T2 construct: EpiIntestinal™ tissues express all the influx and efflux transporters that are considered relevant; host or cells: EpiIntestinal™ 3D reconstructed human small-intestinal epithelium (normal human primary cells, single donor)
Description: Transport with/without P-gp inhibitor verapamil in EpiIntestinal™. The data set is classed as in vitro ADME.

In data set [5] the test system is EpiIntestinal™ tissues. Format: in vitro ADME, human.
The target of another data set is OATP 2B1 (Homo sapiens, UniProt O94956). The data set is classed as in vitro ADME.
Chain of OATP 2B1 (O94956 whole entry): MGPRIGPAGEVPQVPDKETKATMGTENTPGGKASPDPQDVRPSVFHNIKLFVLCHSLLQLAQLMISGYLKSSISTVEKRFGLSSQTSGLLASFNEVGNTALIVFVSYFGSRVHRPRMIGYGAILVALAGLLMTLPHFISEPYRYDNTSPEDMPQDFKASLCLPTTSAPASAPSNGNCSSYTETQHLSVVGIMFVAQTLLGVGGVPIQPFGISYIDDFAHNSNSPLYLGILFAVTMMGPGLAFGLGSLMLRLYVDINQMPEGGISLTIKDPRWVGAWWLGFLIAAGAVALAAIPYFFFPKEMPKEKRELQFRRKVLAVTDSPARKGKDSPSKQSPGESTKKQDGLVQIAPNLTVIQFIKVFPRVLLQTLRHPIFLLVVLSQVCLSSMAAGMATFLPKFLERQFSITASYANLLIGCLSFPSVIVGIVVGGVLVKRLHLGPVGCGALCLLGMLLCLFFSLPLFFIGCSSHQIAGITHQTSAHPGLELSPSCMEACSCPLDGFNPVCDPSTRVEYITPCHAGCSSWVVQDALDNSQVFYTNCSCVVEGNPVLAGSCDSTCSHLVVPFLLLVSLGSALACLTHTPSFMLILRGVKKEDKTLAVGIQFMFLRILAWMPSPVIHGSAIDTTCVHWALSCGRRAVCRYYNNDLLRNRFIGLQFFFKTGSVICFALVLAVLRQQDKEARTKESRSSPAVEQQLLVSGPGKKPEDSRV
The subject of a further data set is BCRP. Kind of data set: in vitro. Particulars: human, not told.

T2 sequence (P08183 whole entry): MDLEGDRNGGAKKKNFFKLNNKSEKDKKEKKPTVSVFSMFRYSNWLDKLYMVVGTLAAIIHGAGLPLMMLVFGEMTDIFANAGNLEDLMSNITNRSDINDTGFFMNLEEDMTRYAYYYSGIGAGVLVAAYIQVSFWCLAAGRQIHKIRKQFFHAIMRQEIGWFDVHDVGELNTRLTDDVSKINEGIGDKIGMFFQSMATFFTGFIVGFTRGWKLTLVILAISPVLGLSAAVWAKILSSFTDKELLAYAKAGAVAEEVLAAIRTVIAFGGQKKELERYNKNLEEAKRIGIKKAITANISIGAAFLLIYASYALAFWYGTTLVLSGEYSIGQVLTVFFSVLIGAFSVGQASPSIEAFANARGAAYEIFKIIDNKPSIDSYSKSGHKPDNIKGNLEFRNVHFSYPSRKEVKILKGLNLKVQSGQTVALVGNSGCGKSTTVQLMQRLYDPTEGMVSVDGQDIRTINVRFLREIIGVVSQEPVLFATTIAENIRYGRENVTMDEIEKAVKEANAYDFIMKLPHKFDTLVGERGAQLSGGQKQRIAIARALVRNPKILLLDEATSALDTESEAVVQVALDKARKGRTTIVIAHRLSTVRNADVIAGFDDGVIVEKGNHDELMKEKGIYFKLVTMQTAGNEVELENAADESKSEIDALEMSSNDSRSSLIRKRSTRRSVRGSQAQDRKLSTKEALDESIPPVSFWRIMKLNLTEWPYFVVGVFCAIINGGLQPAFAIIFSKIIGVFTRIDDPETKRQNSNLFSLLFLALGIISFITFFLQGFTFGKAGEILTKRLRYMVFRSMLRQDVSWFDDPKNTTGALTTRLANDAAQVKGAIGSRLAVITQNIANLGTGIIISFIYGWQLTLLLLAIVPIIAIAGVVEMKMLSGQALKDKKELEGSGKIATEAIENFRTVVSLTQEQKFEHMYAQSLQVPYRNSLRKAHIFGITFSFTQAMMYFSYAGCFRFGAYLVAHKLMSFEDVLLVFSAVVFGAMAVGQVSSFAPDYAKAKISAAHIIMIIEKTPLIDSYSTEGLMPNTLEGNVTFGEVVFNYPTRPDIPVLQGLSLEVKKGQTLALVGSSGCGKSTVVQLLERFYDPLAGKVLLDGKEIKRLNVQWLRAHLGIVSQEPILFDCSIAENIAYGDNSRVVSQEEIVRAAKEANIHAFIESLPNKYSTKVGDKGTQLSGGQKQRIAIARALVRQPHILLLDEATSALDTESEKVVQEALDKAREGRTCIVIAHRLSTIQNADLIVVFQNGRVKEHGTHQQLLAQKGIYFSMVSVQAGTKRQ

Consider Microcystin-LF [MC-LF], for which, in [1], the “amount recovered in the cellular pellet, % of the administered dose” value is given as “less than 1%” and the “dependence of Papp on the donor concentration” value (from here on “dependence of Papp”) is “dose dependent increase in permeability”. Besides, in the data set on EpiIntestinal™ tissues [2], the “toxicity, measured as barrier integrity with LY” value (“toxicity, measured” for short) was “no toxicity”. The “transport (efflux) by MRP2” value at MRP2 [3] is listed as “transported more rapidly than MC-LR and–RR”.

Regarding Microcystin-RR [MC-RR], in data set [1], the “absorption (parent compound detected in the BL compartment), % of the administered dose” value (“absorption … % of the administered dose” for short) was “around 5%”; the “amount recovered in the BL compartment at 4 h, percentage of the applied dose” value is given as 3.6%; the “dependence of Papp” value was “independent on the donor concentrations”; the “permeability coefficient Papp (AP-BL), time course” value was 5.73. Further, the “time at which toxin was detectable in the receptor fluid” value in data set [1] was 30 min. Moreover, the “toxicity, measured” value in the data set on EpiIntestinal™ tissues [2] is on record as “no toxicity”.

As for `C=C1C(=O)N[C@H](C)C(=O)N[C@@H](CC(C)C)C(=O)N[C@@H](C(=O)O)[C@H](C)C(=O)N[C@@H](CCCNC(=N)N)C(=O)N[C@@H](/C=C/C(C)=C/[C@H](C)[C@H](Cc2ccccc2)OC)[C@H](C)C(=O)N[C@@H](C(=O)O)CCC(=O)N1C` [MC-LR, Microcystin-LR] (R[Adda][d(γGlu)][NMeDha][dA]L[dAsp(3S-Me)]-OH; lactam N-7), in [1], the “absorption … % of the administered dose” value was “around 5%”; the “amount recovered in the BL compartment at 4 h, percentage of the applied dose” value stood at 4.6%; the “dependence of Papp” value was “independent on the donor concentrations”. Besides, in the data set on Caco-2 cell monolayers, the “toxin reaching the basolateral compartment” value is 0.3–1.35%. The “effect of cyclosporin on MC transport” value at MRP2 [4] was “significantly decreased the efflux”. Moreover, the “effect of co-administration of verapamil (P-gp inhibitor) on MC transport” value on P-gp was “not affected”. For the same compound, the “toxicity, measured” value with EpiIntestinal™ tissues [2] is on record as “no toxicity”. For the same compound, the “Efflux ratio (ER), Papp BL-AP / Papp AP-BL” value in the data set on EpiIntestinal™ tissues [5] amounted to 3.65.

Take Microcystin-LW [MC-LW]: in data set [1], the “amount recovered in the cellular pellet, % of the administered dose” value is listed as “less than 1%” and the “dependence of Papp” value was “dose dependent increase in permeability”. Besides, the “effect of cyclosporin on MC transport” value at MRP2 [4] is “not reaching the statistical significance”. Moreover, the “effect of pravastatin (OATP 2B1 inhibitor) on MC uptake” value at OATP 2B1 is “slightly decreased”. For the same compound, on P-gp, the “effect of co-administration of verapamil (P-gp inhibitor) on MC transport” value is recorded as “not affected”. For the same compound, the “toxicity, measured” value with EpiIntestinal™ tissues [2] was “no toxicity”. The “Efflux ratio (ER), Papp BL-AP / Papp AP-BL” value with EpiIntestinal™ tissues [5] is 2.65.

Consider Microcystin-YR [MC-YR], for which, in data set [1], the “absorption … % of the administered dose” value is “around 5%”; the “amount recovered in the BL compartment at 4 h, percentage of the applied dose” value is recorded as 4.3%; the “dependence of Papp” value is on record as “independent on the donor concentrations”. Besides, in the data set with EpiIntestinal™ tissues [2], the “toxicity, measured” value is on record as “no toxicity”.

What is called efflux ratio is the permeability from basolateral to apical divided by that in the opposite direction, in the common usage. For `C[C@]12CC[C@H]3[C@@H](CCC4=CC(=O)CC[C@@]43C)[C@@H]1CC[C@@H]2O` [testosterone, Testosterone], the efflux ratio with BCRP came out at 1.95.
